These results are taken from ChEMBL document CHEMBL1649421, “New drug-like hydroxyphenylnaphthol steroidomimetics as potent and selective 17β-hydroxysteroid dehydrogenase type 1 inhibitors for the treatment of estrogen-dependent diseases” (J Med Chem, 2011).

Assay [1] has as its target T1, 17-beta-hydroxysteroid dehydrogenase type 2 (Homo sapiens) (UniProt P37059).
T1 sequence (whole entry): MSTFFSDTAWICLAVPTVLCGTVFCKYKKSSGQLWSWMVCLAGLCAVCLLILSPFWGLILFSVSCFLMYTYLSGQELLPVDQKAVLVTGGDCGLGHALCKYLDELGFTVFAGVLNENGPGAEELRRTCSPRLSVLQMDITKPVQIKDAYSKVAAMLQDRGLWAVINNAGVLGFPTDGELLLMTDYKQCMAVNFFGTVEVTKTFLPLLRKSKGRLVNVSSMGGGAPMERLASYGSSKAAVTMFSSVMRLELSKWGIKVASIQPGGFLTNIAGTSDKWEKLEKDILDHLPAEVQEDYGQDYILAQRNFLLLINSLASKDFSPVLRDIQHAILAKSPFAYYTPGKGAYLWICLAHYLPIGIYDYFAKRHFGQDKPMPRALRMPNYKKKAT
The assay can be described thus: Inhibition of [3H]E2 binding to human placental 17beta-HSD2 at 1 uM after 10 mins by fluid scintillation counting.

The target of assay [2] is T2, 17-beta-hydroxysteroid dehydrogenase type 1 (Homo sapiens) (UniProt P14061).
T2 sequence (whole entry): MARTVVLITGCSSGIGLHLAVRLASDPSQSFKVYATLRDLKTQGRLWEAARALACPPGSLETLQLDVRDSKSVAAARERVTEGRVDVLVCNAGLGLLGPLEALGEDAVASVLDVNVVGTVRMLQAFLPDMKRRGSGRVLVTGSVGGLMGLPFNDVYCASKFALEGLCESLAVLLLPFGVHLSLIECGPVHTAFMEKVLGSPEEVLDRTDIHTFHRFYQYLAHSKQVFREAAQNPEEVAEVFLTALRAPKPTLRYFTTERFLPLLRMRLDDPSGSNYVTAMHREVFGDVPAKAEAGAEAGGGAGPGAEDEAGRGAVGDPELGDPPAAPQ
The assay is described as follows: Inhibition of [3H]E1 binding to human placental 17beta-HSD1 at 1 uM after 10 mins by fluid scintillation counting.

For assay [3], the target named is T3, 17-beta-hydroxysteroid dehydrogenase type 1 (Homo sapiens, UniProt P14061).
T3 sequence (P14061 whole entry): T2 sequence (whole entry)
The assay can be described thus: Displacement of [3H]E1 from 17beta-HSD1 in human T47D cells after 10 mins by fluid scintillation counting. Format: cell-based. On the technique in general: Loss of bound radioactivity is the signal in a displacement assay; it reports binding, not function.

Assay [4] concerns the target T4, Estrogen receptor (Homo sapiens) (UniProt P03372).
T4 sequence (whole entry): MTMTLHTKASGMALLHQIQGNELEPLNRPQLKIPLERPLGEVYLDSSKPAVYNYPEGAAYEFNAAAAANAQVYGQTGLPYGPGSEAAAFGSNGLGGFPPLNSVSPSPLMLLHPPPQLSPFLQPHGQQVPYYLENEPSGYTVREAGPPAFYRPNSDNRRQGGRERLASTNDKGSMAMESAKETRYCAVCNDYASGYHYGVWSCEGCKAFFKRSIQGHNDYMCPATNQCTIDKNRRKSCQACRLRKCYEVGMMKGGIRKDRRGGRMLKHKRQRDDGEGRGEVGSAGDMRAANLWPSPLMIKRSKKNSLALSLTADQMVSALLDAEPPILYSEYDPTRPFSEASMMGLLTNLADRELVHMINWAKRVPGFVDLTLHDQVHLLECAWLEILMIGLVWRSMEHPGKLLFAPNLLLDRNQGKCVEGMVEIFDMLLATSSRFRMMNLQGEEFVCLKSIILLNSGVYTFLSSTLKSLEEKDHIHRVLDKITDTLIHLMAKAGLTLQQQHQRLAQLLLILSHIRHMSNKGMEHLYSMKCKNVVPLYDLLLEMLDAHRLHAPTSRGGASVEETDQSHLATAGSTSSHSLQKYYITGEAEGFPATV
The assay is described as follows: Displacement of [3H]E2 from human recombinant ERalpha by liquid scintillation counting relative to estradiol.

The species named for the next assay is Homo sapiens. The assay is described as follows: Selectivity ratio of IC50 for human placental 17beta-HSD2 to IC50 for human placental 17beta-HSD1.
In assay [5] the target is Estrogen receptor beta (Homo sapiens) (UniProt Q92731). The assay can be described thus: Displacement of [3H]E2 from human recombinant ERbeta by liquid scintillation counting relative to estradiol.
Sequence of Estrogen receptor beta (Homo sapiens) (Q92731 whole entry): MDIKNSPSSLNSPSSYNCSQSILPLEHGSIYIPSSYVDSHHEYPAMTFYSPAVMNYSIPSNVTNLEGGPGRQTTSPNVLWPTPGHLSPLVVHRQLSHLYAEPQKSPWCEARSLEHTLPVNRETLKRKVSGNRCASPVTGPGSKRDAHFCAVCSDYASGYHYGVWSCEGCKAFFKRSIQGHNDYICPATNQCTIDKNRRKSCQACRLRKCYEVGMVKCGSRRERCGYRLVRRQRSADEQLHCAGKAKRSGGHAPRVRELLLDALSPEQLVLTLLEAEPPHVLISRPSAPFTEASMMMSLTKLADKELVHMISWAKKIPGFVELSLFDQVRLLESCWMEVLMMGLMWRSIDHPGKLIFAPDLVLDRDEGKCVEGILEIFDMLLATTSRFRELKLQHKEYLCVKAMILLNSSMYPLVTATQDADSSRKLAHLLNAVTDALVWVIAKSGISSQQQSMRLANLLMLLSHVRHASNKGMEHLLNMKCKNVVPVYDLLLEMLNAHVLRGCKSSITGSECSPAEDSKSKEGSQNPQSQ
Assay [6] deals with T2, 17-beta-hydroxysteroid dehydrogenase type 1 (Homo sapiens). The assay can be described thus: Inhibition of [3H]E1 binding to human placental 17beta-HSD1 at 100 nM after 10 mins by fluid scintillation counting.
The target is the same in assay [7]. The assay can be described thus: Inhibition of [3H]E1 binding to human recombinant 17beta-HSD1 expressed in baculovirus-infected Sf9 cells at 1 uM after 10 mins by fluid scintillation counting.
Assay [8] has the same target. The assay is described as follows: Inhibition of [3H]E1 binding to human recombinant 17beta-HSD1 expressed in baculovirus-infected Sf9 cells at 100 nM after 10 mins by fluid scintillation counting.
In assay [9] the target is T1, 17-beta-hydroxysteroid dehydrogenase type 2 (Homo sapiens). The assay can be described thus: Inhibition of [3H]E2 binding to human recombinant 17beta-HSD2 expressed in baculovirus-infected Sf9 cells at 100 nM after 10 mins by fluid scintillation counting.
Assay [10] has the same target. The assay can be described thus: Inhibition of [3H]E2 binding to human recombinant 17beta-HSD2 expressed in baculovirus-infected Sf9 cells at 1 uM after 10 mins by fluid scintillation counting.
Assay [11] deals with T3, 17-beta-hydroxysteroid dehydrogenase type 1. The assay is described as follows: Displacement of [3H]E1 from human placental 17beta-HSD1 after 10 mins by fluid scintillation counting.

Bounds are passed on as bounds.

For orientation: inhibition means how much of the control response was suppressed. In the case of `Oc1cccc(-c2ccc3c(-c4cncnc4)cccc3c2)c1`, the inhibition in assay [1] and in assay [2] was less than 10% throughout.
Usually IC50 stands for the midpoint of a concentration-inhibition curve. Higher therefore signals a need for much substance. As for `Oc1cccc(-c2ccc3cc(O)ccc3c2)c1`, the IC50 in [3] turned out to be 229 nM. Further, the RBA in assay [4] and in assay [5] was 0.1% each time. Moreover, the Ratio IC50 in the assay listed under Homo sapiens amounted to 49.
Regarding `Oc1cccc(-c2ccc3c(-c4cncnc4)c(O)ccc3c2)c1`, the results for the inhibition in assay [6], in [1] and in assay [2] were less than 10%, 85% and 41%, respectively.
`Oc1cccc(-c2ccc3c(-c4ccoc4)c(O)ccc3c2)c1`: the RBA in assay [4] and in assay [5] was 0.01% each time. Further, the inhibition is 89% in [7], 83% in assay [8], 61% in assay [9] and 92% in assay [10]. For the same compound, the Ratio IC50 in the assay filed under Homo sapiens was 8. The compound further returned an IC50 in assay [11] of 70 nM.
Regarding `Oc1ccccc1-c1ccc2c(-c3cncnc3)c(O)ccc2c1`, the inhibition in [1] and in assay [2] was less than 10% throughout.
As for `Oc1ccc2cc(-c3ccccc3)ccc2c1-c1cncnc1`, the inhibition in [1] is less than 10%; in assay [2] it was 22%.
As to `O=C(O)CCC(=O)Nc1cccc(-c2c(O)ccc3cc(-c4cccc(O)c4)ccc23)c1`, the inhibition in assay [7] is 62%; in assay [8], less than 10%; in assay [9] it was 24%; in assay [10], 68%.
For `COc1ncc(-c2c(O)ccc3cc(-c4cccc(O)c4)ccc23)c(OC)n1`, the figures for the inhibition in assay [6], in assay [1] and in assay [2] were 31%, 9% and 79%, respectively.
Regarding `Oc1cccc(-c2ccc3c(-c4ccc5[nH]ccc5c4)c(O)ccc3c2)c1`, the inhibition in assay [6] was found to be 50%; in assay [1], 19%; in [2] it was 87%.
With `Oc1cccc(-c2ccc3c(-c4ccc(N5CCOCC5)cc4)c(O)ccc3c2)c1`, the inhibition came to 65% in [7], 32% in assay [8], 12% in assay [9] and 32% in assay [10].
Regarding `Oc1ccc(-c2ccc3c(-c4cncnc4)c(O)ccc3c2)cc1`, the figures for the inhibition in [1] and in assay [2] were 22% and 35%, respectively.
In the case of `Oc1ccccc1-c1ccc2c(-c3cncnc3)cccc2c1`, the inhibition in [1] and in assay [2] was less than 10% throughout.
Turning to `Cn1cc(-c2c(O)ccc3cc(-c4cccc(O)c4)ccc23)cn1`, the inhibition in assay [6] came out at 28%; in assay [1] it was 24%; in [2], 71%.
Regarding `CC(=O)Nc1cccc(-c2c(O)ccc3cc(-c4cccc(O)c4)ccc23)c1`, the inhibition in assay [7] was 82%; in assay [8], 35%; in assay [9] it was 24%; in [10], 64%.
On to `O=C(O)c1cccc(-c2c(O)ccc3cc(-c4cccc(O)c4)ccc23)c1`, for which the inhibition in [7] was 80%; in assay [8] it was 45%; in [9] it was less than 10%; in [10], 34%.
For the compound `Oc1cccc(-c2ccc3c(-c4ccncc4)c(O)ccc3c2)c1`, the RBA was 0.01% in assay [4] and less than 0.01% in assay [5]. Also, the inhibition worked out at 86% in assay [7], 74% in [8], 12% in assay [9] and 49% in assay [10]. Moreover, in assay [11], the IC50 came out at 64 nM.
